Measured values: patent publication US20250134122A1, “PEDIATRIC NUTRITIONAL COMPOSITIONS AND METHODS FOR INFANTS DELIVERED BY C-SECTION” (Mead Johnson Nutrition Company, priority 2018, published 2025)

Test system: mouse fecal microbiota
Experiment: Gut microbiota community structure (16S rRNA V4-V5 sequencing, β-diversity, PCoA) after 3 weeks on experimental diets
Type: in vivo
Conditions: adult male C57bl/6 mice, 3 weeks of feeding; versus Control-fed or SAL-fed mice; ADONIS p<0.05
Excerpt: Adult male C57bl/6 strains of Mus musculus (Charles Rivers Laboratories, Wilmington, MA) between 6-8 weeks of age were used in the study. After being received from the vendor, mice were placed on one of three experimental diets. Animals were given ad libitum access to water, and maintained on the experimental diets for 3 weeks. Experimental diets were: (1) Control diet (AlN-93G mouse chow); (2) AlN-93G supplemented with galactooligosaccharides (GOS 21.2 g/kg)+polydextrose (PDX 6.6 g/kg)+sialyllactose (SAL 2 g/kg); (3) AlN-93G supplemented with SAL.
Colon contents were removed via direct excision for metabolomic analysis, and the colon tissue was briefly washed in a PBS bath so as to not disturb the mucous layer. DNA was extracted from the medial section of the colon (˜10 mg) using a Qiagen DNA Mini Kit, following manufacturer's instructions with slight modifications. Briefly, tissues were incubated for 45 min at 37° C. in lysozyme buffer (20 mg/ml lysozyme, 20 mM TrisHCL, 2 mM EDTA, 1.2% Triton-x, pH 8.0), then bead-beat for 150 sec with 0.7 mm zirconia beads. Samples were incubated at 56° C. for 2 hr with Buffer ATL and Proteinase K, then incubated at 56° C. for 30 min and 95° C. for 10 min upon addition of Buffer AL. […] DNA was quantified with the Qubit 2.0 Fluorometer (Life Technologies, Carlsbad, CA) using the dsDNA Broad Range Assay Kit. […]

sialyllactose [SAL]
mouse fecal microbiota community structure (β-diversity; Unweighted UniFrac), PCoA clustering: not achieved
